For twelve molecules, Ratio, EC50 and IC50 results are on record in ChEMBL document CHEMBL1157210, “Neurosteroid analogues. 12. Potent enhancement of GABA-mediated chloride currents at GABAA receptors by ent-androgens” (Eur J Med Chem, 2008).

Test [1] is filed under the species Rattus norvegicus. Nature of the test: Activity at rat GABAA alpha-1-beta-2-gamma-2L receptor expressed in Xenopus laevis expressed in assessed as ratio of current in treated to non-treated oocyte at 10 uM by electrophysiology.
The species entered for test [2] is Rattus norvegicus. The experiment in a line: Activity at rat GABAA alpha-1-beta-2-gamma-2L receptor expressed in Xenopus laevis assessed as ratio of current in treated to non-treated oocyte at 0.1 uM by electrophysiology.
The species entered for test [3] is Rattus norvegicus. Nature of the test: Activity at rat GABAA alpha-1-beta-2-gamma-2L receptor expressed in Xenopus laevis assessed as ratio of current in drug-treated to GABA-treated oocyte at 10 uM by electrophysiology.
In test [4] the test system is Xenopus laevis. Nature of the test: Anesthetic effect in Xenopus laevis assessed as loss of righting response. Format: functional, organism-based.
For test [5], the species on record is Rattus norvegicus. Nature of the test: Activity at rat GABAA alpha-1-beta-2-gamma-2L receptor expressed in Xenopus laevis expressed in assessed as ratio of current in treated to non-treated oocyte at 1 uM by electrophysiology.
A short description of test [6]: Displacement of […] from GABAA receptor in rat brain. The format is tissue-based. Background: In a radioligand displacement assay an active substance lowers the binding of a labelled ligand.
The subject of test [7] is Xenopus laevis. The experiment in a line: Anesthetic effect in Xenopus laevis assessed as loss of swimming response. The format is functional, organism-based.

In general, EC50 refers to the midpoint of the concentration-response curve. The IC50 is the midpoint of a concentration-inhibition curve. Turning to `C[C@]12CC[C@@H](O)C[C@@H]1CC[C@@H]1[C@@H]2CC[C@]2(C)C(=O)CC[C@@H]12` [ANDROSTERONE], the Ratio came to 5.44 in the test filed under Rattus norvegicus [1], 0.97 in the test listed under Rattus norvegicus [2], 0.02 in the test listed under Rattus norvegicus [3] and 1.41 in the test filed under Rattus norvegicus [5]. Also, the EC50 with Xenopus laevis [4] turned out to be 3380 nM. The molecule also registered an IC50 in test [6] of 410 nM.

Take `CC(=O)[C@H]1CC[C@H]2[C@@H]3CC[C@H]4C[C@H](O)CC[C@]4(C)[C@H]3CC[C@]12C` [BREXANOLONE]: the Ratio in the test listed under Rattus norvegicus [1] worked out at 9.65; in the test listed under Rattus norvegicus [2] it was 1.26; in the test listed under Rattus norvegicus [3], 0.37; in the test filed under Rattus norvegicus [5] it was 3.89. In addition, the EC50 in the test with Xenopus laevis [4] worked out at 420 nM; with Xenopus laevis [7] it was 5500 nM. In test [6], the IC50 is 74 nM.

Turning to `C[C@]12CC[C@@H](O)C[C@H]1CC[C@@H]1[C@@H]2CC[C@@]2(C)[C@H]1CC[C@@]21CO1`, the Ratio turned out to be 25.4 in the test filed under Rattus norvegicus [1], 1.28 in the test listed under Rattus norvegicus [2], 0.03 in the test filed under Rattus norvegicus [3] and 5.17 in the test filed under Rattus norvegicus [5]. The concentration for a half-maximal effect (EC50) in the test with Xenopus laevis [4] amounted to 990 nM; with Xenopus laevis [7] it was 1730 nM. Besides, the IC50 in test [6] worked out at 220 nM.

For `C[C@]12CC[C@@H](O)C[C@H]1CC[C@@H]1[C@@H]2CC[C@]2(C)C(=O)CC[C@@H]12` [ETIOCHOLANOLONE], the Ratio was 1.39 in the test listed under Rattus norvegicus [1], 0.89 in the test filed under Rattus norvegicus [2], 0 in the test listed under Rattus norvegicus [3] and 0.87 in the test listed under Rattus norvegicus [5]. In addition, the IC50 in test [6] was determined as 4150 nM.

As for `C[C@@]12CC[C@H](O)C[C@H]1CC[C@@H]1[C@@H]2CC[C@]2(C)[C@H]1CC[C@]21CO1`, the Ratio is 26.3 in the test listed under Rattus norvegicus [1], 2.62 in the test filed under Rattus norvegicus [2], 0.1 in the test filed under Rattus norvegicus [3] and 15.9 in the test listed under Rattus norvegicus [5]. Moreover, the figures for the 50% effective concentration (EC50) with Xenopus laevis [4] and with Xenopus laevis [7] were 1080 nM and 2710 nM, respectively. The IC50 in test [6] worked out at 470 nM.

In the case of `C[C@@]12CC[C@H](O)C[C@@H]1CC[C@@H]1[C@@H]2CC[C@]2(C)[C@H]1CC[C@]21CO1`, the Ratio in the test filed under Rattus norvegicus [1] was 20.8; in the test listed under Rattus norvegicus [2] it was 1.86; in the test listed under Rattus norvegicus [3], 0.12; in the test filed under Rattus norvegicus [5] it was 10.5. Also, the EC50 in the test on Xenopus laevis [4] was 1730 nM; in the test with Xenopus laevis [7] it was 2760 nM. The molecule also gave an IC50 in test [6] of 390 nM.

With `CC(=O)[C@@H]1CC[C@H]2[C@@H]3CC[C@H]4C[C@@H](O)CC[C@@]4(C)[C@H]3CC[C@@]12C`, the Ratio came out at 7.92 in the test filed under Rattus norvegicus [1], 1.28 in the test filed under Rattus norvegicus [2], 0.06 in the test listed under Rattus norvegicus [3] and 2.82 in the test listed under Rattus norvegicus [5]. Besides, the 50% effective concentration (EC50) in the test on Xenopus laevis [4] turned out to be 70 nM; in the test with Xenopus laevis [7], 890 nM. Moreover, the 50% inhibitory concentration (IC50) in test [6] came to 280 nM.

In the case of `C[C@@]12CC[C@H](O)C[C@H]1CC[C@@H]1[C@@H]2CC[C@@]2(C)C(=O)CC[C@@H]12`, the Ratio in the test listed under Rattus norvegicus [1] amounted to 18.9; in the test filed under Rattus norvegicus [2] it was 1.27; in the test listed under Rattus norvegicus [3] it was 0.03; in the test listed under Rattus norvegicus [5], 3.66. Also, the EC50 turned out to be 1420 nM in the test with Xenopus laevis [4] and 5480 nM in the test on Xenopus laevis [7]. The same molecule yielded a half-maximal inhibitory concentration (IC50) in test [6] of 310 nM.

Take `C[C@]12CC[C@@H](O)C[C@@H]1CC[C@@H]1[C@@H]2CC[C@@]2(C)[C@H]1CC[C@@]21CO1`: the Ratio stood at 33.7 in the test filed under Rattus norvegicus [1], 3.11 in the test listed under Rattus norvegicus [2], 0.22 in the test listed under Rattus norvegicus [3] and 21.9 in the test filed under Rattus norvegicus [5]. For the same molecule, the concentration for a half-maximal effect (EC50) with Xenopus laevis [4] came to 1350 nM; in the test on Xenopus laevis [7] it was 2760 nM. For the same molecule, the concentration for half-maximal inhibition (IC50) in test [6] came to 110 nM.

As to `CC(=O)[C@H]1CC[C@H]2[C@@H]3CC[C@@H]4C[C@H](O)CC[C@]4(C)[C@H]3CC[C@]12C` [ELTANOLONE], the Ratio in the test filed under Rattus norvegicus [1] worked out at 9.77; in the test listed under Rattus norvegicus [2], 1.2; in the test listed under Rattus norvegicus [3], 0.06; in the test filed under Rattus norvegicus [5] it was 2.82. Also, the 50% effective concentration (EC50) came out at 60 nM in the test with Xenopus laevis [4] and 300 nM in the test with Xenopus laevis [7]. Moreover, the IC50 in test [6] was determined as 71 nM.

Regarding `C[C@@]12CC[C@H](O)C[C@@H]1CC[C@@H]1[C@@H]2CC[C@@]2(C)C(=O)CC[C@@H]12`, the Ratio in the test filed under Rattus norvegicus [1] was found to be 14.1; in the test filed under Rattus norvegicus [2], 1.4; in the test listed under Rattus norvegicus [3], 0.09; in the test filed under Rattus norvegicus [5] it was 2.34. Further, the concentration giving a half-maximal response (EC50) was 1970 nM with Xenopus laevis [4] and 8900 nM in the test on Xenopus laevis [7]. Further, the half-inhibitory concentration (IC50) in test [6] is 380 nM.

`CC(=O)[C@@H]1CC[C@H]2[C@@H]3CC[C@@H]4C[C@@H](O)CC[C@@]4(C)[C@H]3CC[C@@]12C`: the Ratio in the test filed under Rattus norvegicus [1] was found to be 1.17; in the test filed under Rattus norvegicus [2], 0.95; in the test filed under Rattus norvegicus [3], 0.02; in the test filed under Rattus norvegicus [5], 0.92. The EC50 is 970 nM with Xenopus laevis [4] and greater than 5000 nM with Xenopus laevis [7]. In addition, the concentration for half-maximal inhibition (IC50) in test [6] came to 1910 nM.
